Reference: ChEMBL document CHEMBL6109177, “AI-Driven De Novo Design and Development of Nontoxic DYRK1A Inhibitors” (J Med Chem, 2025)
The source made the active and inactive calls. The rule behind the calls is not given here.

Legend:
BV-2 [1] = experiment: Cytotoxicity against mouse BV-2 cells assessed as cell viability at 10 uM by MTT assay; assay type: toxicity, cell-based; conditions: bv-2, 10 µM
BV-2 [2] = experiment: Cytotoxicity against mouse BV-2 cells assessed as cell viability at 5 uM by MTT assay; assay type: toxicity, cell-based; conditions: bv-2, 5 µM
BV-2 [3] = experiment: Anti-inflammatory activity in mouse BV-2 cells assessed as reduction in LPS-induced NO production at 5 uM pretreated with LPS for 24 hrs followed by compound addition and measured after 24 hrs by Griess reagent based analysis; assay type: functional, cell-based
BV-2 [4] = experiment: Anti-inflammatory activity in mouse BV-2 cells assessed as reduction in LPS-induced NO production pretreated with LPS for 24 hrs followed by compound addition and measured after 24 hrs by Griess reagent based analysis; assay type: functional, cell-based; conditions: dose 0.5-5 µM
BV-2 [5] = experiment: Cytotoxicity against mouse BV-2 cells assessed as cell viability up to 10 uM by MTT assay; assay type: toxicity, cell-based; conditions: bv-2, 10 µM
BV-2 [6] = experiment: Anti-inflammatory activity in mouse BV-2 cells assessed as reduction in LPS-induced NO production at 10 uM pretreated with LPS for 24 hrs followed by compound addition and measured after 24 hrs by Griess reagent based analysis; assay type: functional, cell-based

Fc1cccc(-c2c[nH]c3ncc(-c4cnn(C5CCNCC5)c4)cc23)c1
Activity (BV-2 [1]): Toxic
Activity (BV-2 [2]): Non-toxic
Activity (BV-2 [3]): Active; Compound Showed Most Pronounced Effect Compared With Other Tested Compounds
Activity (BV-2 [4]): Dose-dependent-effect

CN1CCC(n2cc(-c3cnc4[nH]cc(-c5cc(Cl)cc(Cl)c5)c4c3)cn2)CC1
Activity (BV-2 [5]): Non-toxic
Activity (BV-2 [6]): Active

COc1cc(-c2c[nH]c3ncc(-c4cnn(C5CCNCC5)c4)cc23)c(F)cc1C
Activity (BV-2 [5]): Non-toxic
Activity (BV-2 [6]): Active

CN1CCC(n2cc(-c3cnc4[nH]cc(-c5cccc(F)c5)c4c3)cn2)CC1
Activity (BV-2 [1]): Toxic
Activity (BV-2 [2]): Non-toxic
Activity (BV-2 [3]): Active; Compound Showed Most Pronounced Effect Compared With Other Tested Compounds
Activity (BV-2 [4]): Dose-dependent-effect

COc1cccc(-c2c[nH]c3ncc(-c4cnn(C5CCN(C)CC5)c4)cc23)c1
Activity (BV-2 [1]): Toxic
Activity (BV-2 [2]): Non-toxic
Activity (BV-2 [3]): Active
Activity (BV-2 [4]): Dose-dependent-effect

Clc1cc(Cl)cc(-c2c[nH]c3ncc(-c4cnn(C5CCNCC5)c4)cc23)c1
Activity (BV-2 [5]): Non-toxic
Activity (BV-2 [6]): Active

COc1cc(-c2c[nH]c3ncc(-c4cnn(C5CCN(C)CC5)c4)cc23)c(F)cc1C
Activity (BV-2 [5]): Non-toxic
Activity (BV-2 [6]): Active

COc1cccc(-c2c[nH]c3ncc(-c4cnn(C5CCNCC5)c4)cc23)c1
Activity (BV-2 [1]): Toxic
Activity (BV-2 [2]): Non-toxic
Activity (BV-2 [3]): Active
Activity (BV-2 [4]): Dose-dependent-effect
